# Source: ChEMBL document CHEMBL3877302, “Design and Synthesis of a New Series of 4-Heteroarylamino-1'-azaspiro[oxazole-5,3'-bicyclo[2.2.2]octanes as α7 Nicotinic Receptor Agonists. 1. Development of Pharmacophore and Early Structure-Activity Relationship” (J Med Chem, 2016)
# Tested on: not listed separately
# Assay: Selectivity ratio of IC50 for human 5-HT3A expressed in HEK293 cells to EC50 for rat alpha7 nAChR expressed in HEK293 cells co-expressing human RIC3
# Assay type: ADME, cell-based
row,SMILES,Ratio IC50/EC50
1,c1nc2cc(NC3=NCC4(CN5CCC4CC5)O3)ccc2s1 (racemic),13
2,c1ccc2sc(NC3=NCC4(CN5CCC4C5)O3)nc2c1 (racemic),0.06
3,c1ccc2nc(NC3=NC[C@@]4(CN5CCC4CC5)O3)ccc2c1,0.3
4,CCOc1ccc2nc(NC3=NCC4(CN5CCC4CC5)O3)sc2c1 (stereo not drawn),42
5,c1cncc(/N=C2\NCC3(CN4CCC3CC4)O2)c1 (racemic),0.1
6,c1ccc2sc(NC3=NC[C@]4(CN5CCC4CC5)O3)nc2c1,6
7,COc1cc2nc(NC3=NCC4(CN5CCC4CC5)O3)sc2cc1OC (stereo not drawn),3
8,Clc1ccc2nc(NC3=NCC4(CN5CCC4CC5)O3)sc2c1 (stereo not drawn),53
9,Oc1ccc2nc(NC3=NCC4(CN5CCC4CC5)O3)sc2c1 (stereo not drawn),11
10,c1cc(NC2=NCC3(CN4CCC3CC4)O2)ccn1 (racemic),5
11,c1ccc(-c2cnc(NC3=NCC4(CN5CCC4CC5)O3)s2)cc1 (racemic),51 to 750
12,c1ccc(NC2=NCC3(CN4CCC3CC4)O2)cc1 (racemic),0.04
13,c1ccc2sc(NC3=NCC4(CN5CCCC4C5)O3)nc2c1 (racemic),< 0.01

# Target: T1, 5-hydroxytryptamine receptor 3A (Homo sapiens, UniProt P46098)
# T1 sequence (P46098 whole entry): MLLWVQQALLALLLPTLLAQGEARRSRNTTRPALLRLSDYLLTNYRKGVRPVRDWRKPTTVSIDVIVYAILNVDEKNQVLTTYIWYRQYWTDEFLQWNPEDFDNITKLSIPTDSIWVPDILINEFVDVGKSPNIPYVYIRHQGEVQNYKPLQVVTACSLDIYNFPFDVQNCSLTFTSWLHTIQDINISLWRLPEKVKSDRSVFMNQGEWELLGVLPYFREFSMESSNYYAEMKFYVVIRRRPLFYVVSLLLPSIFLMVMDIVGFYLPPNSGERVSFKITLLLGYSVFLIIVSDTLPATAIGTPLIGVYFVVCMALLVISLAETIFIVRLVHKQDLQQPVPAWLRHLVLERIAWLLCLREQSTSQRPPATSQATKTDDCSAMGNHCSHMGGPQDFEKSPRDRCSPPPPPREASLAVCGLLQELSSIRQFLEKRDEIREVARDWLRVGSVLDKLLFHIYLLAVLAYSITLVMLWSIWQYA
# Assay: Antagonist activity at human 5-HT3A expressed in HEK293 cells assessed as reduction in acetylcholine-induced activity preincubated for 30 mins followed by addition of acetylcholine measured for 2 mins by Fluo-4AM dye based FLIPR assay
# Assay type: cell-based
row,SMILES,IC50 [µM]
1,COc1ccc2nc(/N=C3/OC4(CN5CCC4CC5)CN3C)sc2c1 (stereo not drawn),> 100
2,c1nc2cc(NC3=NCC4(CN5CCC4CC5)O3)ccc2s1 (racemic),41
3,c1ccc2sc(NC3=NCC4(CN5CCC4C5)O3)nc2c1 (racemic),0.035
4,c1ccc2nc(NC3=NC[C@@]4(CN5CCC4CC5)O3)ccc2c1,0.008
5,CCOc1ccc2nc(NC3=NCC4(CN5CCC4CC5)O3)sc2c1 (stereo not drawn),14
6,c1cncc(/N=C2\NCC3(CN4CCC3CC4)O2)c1 (racemic),2.3
7,c1ccc2sc(NC3=NC[C@]4(CN5CCC4CC5)O3)nc2c1,7.3
8,COc1cc2nc(NC3=NCC4(CN5CCC4CC5)O3)sc2cc1OC (stereo not drawn),27
9,Clc1ccc2nc(NC3=NCC4(CN5CCC4CC5)O3)sc2c1 (stereo not drawn),8.1
10,Oc1ccc2nc(NC3=NCC4(CN5CCC4CC5)O3)sc2c1 (stereo not drawn),11
11,c1cc(NC2=NCC3(CN4CCC3CC4)O2)ccn1 (racemic),58
12,c1ccc(-c2cnc(NC3=NCC4(CN5CCC4CC5)O3)s2)cc1 (racemic),20
13,c1ccc(NC2=NCC3(CN4CCC3CC4)O2)cc1 (racemic),0.23
14,c1ccc2sc(NC3=NCC4(CN5CCCC4C5)O3)nc2c1 (racemic),0.007

# Target: Neuronal acetylcholine receptor subunit alpha-7 (Rattus norvegicus, UniProt Q05941)
# Assay: Agonist activity at rat alpha7 nAChR expressed in HEK293 cells co-expressing human RIC3 measured for 2 mins by FLIPR assay
# Assay type: cell-based
# Sequence of Neuronal acetylcholine receptor subunit alpha-7 (Q05941 whole entry): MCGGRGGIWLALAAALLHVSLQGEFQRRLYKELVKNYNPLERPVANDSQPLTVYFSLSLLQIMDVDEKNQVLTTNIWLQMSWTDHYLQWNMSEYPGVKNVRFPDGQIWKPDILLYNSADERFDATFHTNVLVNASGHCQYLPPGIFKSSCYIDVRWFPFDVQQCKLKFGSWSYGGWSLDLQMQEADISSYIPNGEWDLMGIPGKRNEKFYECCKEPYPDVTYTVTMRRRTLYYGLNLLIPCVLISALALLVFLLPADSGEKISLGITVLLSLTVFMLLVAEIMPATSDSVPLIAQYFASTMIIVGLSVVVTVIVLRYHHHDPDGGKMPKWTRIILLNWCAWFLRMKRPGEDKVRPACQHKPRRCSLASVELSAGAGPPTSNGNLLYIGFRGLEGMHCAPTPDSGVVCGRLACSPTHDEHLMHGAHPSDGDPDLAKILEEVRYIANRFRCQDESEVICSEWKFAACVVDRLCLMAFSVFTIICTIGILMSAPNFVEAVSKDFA
row,SMILES,EC50 [nM]
1,c1ccc2c(NC3=NC[C@@]4(CN5CCC4CC5)O3)nccc2c1,210
2,COc1ccc2nc(/N=C3/OC4(CN5CCC4CC5)CN3C)sc2c1 (stereo not drawn),> 100000
3,c1nc2cc(NC3=NCC4(CN5CCC4CC5)O3)ccc2s1 (racemic),3100
4,c1ccc2sc(NC3=NCC4(CN5CCC4C5)O3)nc2c1 (racemic),260
5,c1ccc2nc(NC3=NC[C@@]4(CN5CCC4CC5)O3)ccc2c1,26
6,CCOc1ccc2nc(NC3=NCC4(CN5CCC4CC5)O3)sc2c1 (stereo not drawn),320
7,c1cncc(/N=C2\NCC3(CN4CCC3CC4)O2)c1 (racemic),21000
8,c1ccc2sc(NC3=NC[C@]4(CN5CCC4CC5)O3)nc2c1,1300
9,COc1cc2nc(NC3=NCC4(CN5CCC4CC5)O3)sc2cc1OC (stereo not drawn),11000
10,Clc1ccc2nc(NC3=NCC4(CN5CCC4CC5)O3)sc2c1 (stereo not drawn),150
11,Oc1ccc2nc(NC3=NCC4(CN5CCC4CC5)O3)sc2c1 (stereo not drawn),980
12,c1cc(NC2=NCC3(CN4CCC3CC4)O2)ccn1 (racemic),11000
13,c1ccc(-c2cnc(NC3=NCC4(CN5CCC4CC5)O3)s2)cc1 (racemic),400
14,c1ccc(NC2=NCC3(CN4CCC3CC4)O2)cc1 (racemic),5400
15,c1ccc2sc(NC3=NCC4(CN5CCCC4C5)O3)nc2c1 (racemic),700

# Target: T2, 5-HT3A (Homo sapiens, UniProt P46098)
# T2 sequence (P46098 whole entry): T1 sequence (P46098 whole entry)
# Assay: Antagonist activity at 5-HT3A (unknown origin) at 10 uM
row,SMILES,inhibition at 10 µM [%]
1,O=C1NC[C@@]2(CN3CCC2CC3)O1,2.5
